Experimental data taken from patent publication US6893846B2, “Primers for use in detecting beta-lactamases” (priority 1998, dated 2005).
Converted amounts (≈) assume the structure as drawn. Like-named read-outs stand apart in the source and are kept apart here.

Legend:
[1] = test system: E. coli HB101 transformant (17 kb plasmid); conditions: disk diffusion, Tr (17 kb) = transformant E. coli HB101
P. mirabilis = experiment: Agar dilution MIC, South African isolates; format: cell-based, Proteus mirabilis; conditions: 4 strains, tzp with tazobactam 4 μg/ml
In short: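 Clinical isolates from South African hospitals, intermediate or resistant to cefotaxime or ceftazidime and lacking inducible beta-lactamases, were tested by NCCLS M7-T2 agar dilution. Quality-control strains E. coli ATCC 25922 and 35218, P. aeruginosa ATCC 27853 and S. aureus ATCC 29213 were run alongside. Results were interpreted by NCCLS criteria.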

[2] = target: single beta-lactamase in E. coli cell extracts (Escherichia coli, UniProt P62593, E102K/R162S); experiment: Spectrophotometric hydrolysis assay on crude beta-lactamase extracts; conditions: E. coli Pit 64 extract, beta-lactamase pI 5.6; 100 μM substrate
[3] = test system: E. coli C600N transconjugants; experiment: Susceptibility of transconjugants; format: cell-based, Escherichia coli; conditions: E. coli C600N transconjugants of E. aerogenes 187, 200, 220, 184
[4] = target: single beta-lactamase in K. pneumoniae cell extracts (Klebsiella pneumoniae, UniProt P0AD64, G234S); experiment: Spectrophotometric hydrolysis assay on crude beta-lactamase extracts; conditions: K. pneumoniae Pit 100 extract, beta-lactamase pI 7.6; 100 μM substrate
[5] = target: single beta-lactamase in K. pneumoniae cell extracts (Klebsiella pneumoniae, UniProt P0AD64, E235K/G234S); experiment: as above; conditions: K. pneumoniae Pit 82 extract, beta-lactamase pI 8.2; 100 μM substrate
[6] = target: single beta-lactamase in K. pneumoniae cell extracts (Escherichia coli, UniProt P62593, E102K/R162S); experiment: as above; conditions: K. pneumoniae Pit 16 extract, beta-lactamase pI 5.6; 100 μM substrate
K. pneumoniae 225 [7] = conditions: test drug disk around amoxicillin-clavulanate disk
K. pneumoniae = experiment: Agar dilution MIC, South African isolates; format: cell-based, Klebsiella pneumoniae; conditions: tzp with tazobactam 4 μg/ml
Excerpt: The strains were provided in response to a request for all strains of Enterobacteriaceae, lacking inducible beta-lactamases, that were intermediate or resistant to cefotaxime or ceftazidime. […]

E. aerogenes [8] = format: cell-based, Enterobacter aerogenes
Procedure: Antibiotic susceptibilities were determined by standard disk-diffusion (NCCLS Standard M2-A6) and agar-dilution (NCCLS Standard M7-A4) procedures. Disks were obtained from Becton Dickinson Microbiology Systems (Cockeysville, Md.). […] Throughout this study, results were interpreted using NCCLS criteria for disk diffusion (NCCLS M2-A6) and broth dilution (NCCLS M7-A4).

E. aerogenes [9] = experiment: Double-disk potentiation test; format: cell-based, Enterobacter aerogenes; conditions: all the E. aerogenes strains selected; potentiation by clavulanic acid
Excerpt: This test described by Jarlier et al., Rev. Infect. Dis.

[10] = target: single beta-lactamase in P. mirabilis cell extracts (Escherichia coli, UniProt P62593, E102K/R162S); experiment: Spectrophotometric hydrolysis assay on crude beta-lactamase extracts; conditions: P. mirabilis Pit 85 extract, beta-lactamase pI 5.6; 100 μM substrate
K. pneumoniae 225 [11] = experiment: Three-dimensional test (enzymatic inactivation of antibiotics); conditions: beta-lactamase-mediated hydrolysis by K. pneumoniae 225, lawn E. coli ATCC 25922
[12] = target: beta-lactamases in sonic extracts of P. mirabilis (Escherichia coli, UniProt P62593, E102K/R162S); experiment: Isoelectric focusing overlay: cefotaxime hydrolysis and inhibitors; conditions: beta-lactamase pI 5.6 (TEM-10 or 26), 0.75 μg/ml cefotaxime

SMILES: CO/N=C(\C(=O)N[C@@H]1C(=O)N2C(C(=O)O)=C(COC(C)=O)CS[C@H]12)c1csc(N)n1 [cefotaxime]
- Zone Size [1]: 34 mm
- MIC range (P. mirabilis): 0.25 to 0.5 µg/mL
- Hydrolysis [2]: 1 nmol of substrate hydrolyzed/m
- susceptibility after transfer of plasmids encoding SHV beta-lactamase genes [3]: decreased susceptibility
- Hydrolysis [4]: 11 nmol of substrate hydrolyzed/m
- Hydrolysis [5]: 11 nmol of substrate hydrolyzed/m
- Hydrolysis [6]: 4 nmol of substrate hydrolyzed/m
- clavulanate double-disk potentiation test (K. pneumoniae 225 [7]): positive
- MIC range (K. pneumoniae; resistance phenotype Kpn1, 8 strains): 0.25 to 1 µg/mL
- MIC range (K. pneumoniae; resistance phenotype Kpn2, 28 strains): 4 to 64 µg/mL
- MIC range (K. pneumoniae; resistance phenotype Kpn3 (K. pneumoniae Pit 68), 1 strain, listed as ctx): 4 µg/mL
- MIC range (E. aerogenes [8]; 1 E. aerogenes strain with Bush group 1 and group 2be (SHV-3) enzymes): 1 µg/mL (≈ 2.2 µM)
- MIC range (E. aerogenes [8]; 1 E. aerogenes strain with Bush group 1 and group 2be (SHV-5) enzymes): 1 to 2 µg/mL
- MIC range (E. aerogenes [8]; 29 E. aerogenes strains with Bush group 1 and group 2be (SHV-4) enzymes): 1 to 2 µg/mL
- susceptibility by MIC (E. aerogenes [8]; all E. aerogenes strains): decreased susceptibility
- double disk test (E. aerogenes [9]): positive
- Hydrolysis [10]: 5 nmol of substrate hydrolyzed/m
- three dimensional test (K. pneumoniae 225 [11]): positive
- ctx hydrolysis [12]: Yes
